Experimental data as given in patent US5985261A, “Use of thioredoxin-like molecules for induction of MnSOD to treat oxidative damage” (National Jewish Medical and Research Center, priority 1997, dated 1999).
Starred links: 1 amine or outer side, 2 acyl side, 3 side chain; linkers in the order of their positions; H or OH if unused. Positions of bridges follow the written chain, without caps; N, C: chain ends. Non-standard residues stand in square brackets, D forms with d. Residues, ends and D or L forms follow the SMILES beside them. Chains are numbered I, II in the order given. Actinocin(9to1) = Cc1c2oc3c(C)ccc(C(=O)[*:1])c3nc-2c(C(=O)[*:2])c(N)c1=O; NMeV = CN[C@H](C(=O)O)C(C)C; Sar = CNCC(=O)O

System: MnSOD mRNA in A549 cells
Assay: Effect on MnSOD mRNA induction by thioredoxin in A549 cells (Northern blot)
Format: cell-based, human
Procedure: Reduced thioredoxin (recombinant, E. coli; Promega) was prepared by treating 1 mM thioredoxin with 2 mM dithiothreitol (DTT) for 20 min at room temperature followed by removal of excess DTT using a G-25 spin column. A549 cells were grown in F-12K medium with 10% serum. Confluent monolayers were treated with oxidized thioredoxin (3 or 7 μM), with and without the thioredoxin reducing system [thioredoxin reductase (0.1 μM)+NADPH (2 mM)]. Incubations were for 16 hours. Total RNA was isolated from cells by guanidine isothiocyanate lysis and cesium chloride centrifugation of the lysate (147,000× g, 20-25° C.) in an ultracentrifuge (Beckman) by the methods of Sambrook et al., ibid. Total RNA was quantified spectrophotometrically.
Twenty micrograms of RNA was resolved by electrophoresis in 1% agarose, 2.5 M formaldehyde gel in a buffer containing 20 mM MOPS and 1 mM EDTA (pH 7.4). RNA was transferred to nitrocellulose and blots were prehybridized 2-12 hours in 50% formamide, 0.75 M sodium chloride, 0.075 M sodium citrate (pH 7.0), 5× Denhardt's solution, 50 μg/ml salmon sperm DNA, and 0.1% SDS at 42° C. Blots were hybridized with cDNA for MnSOD labeled to a specific activity of 2-7×10^7 cpm using ^32 P-γ CTP (ICN) in hybridization solution at 42° C. overnight and then were washed in 0.3 M sodium chloride, 0.03 M sodium citrate, 0.1% SDS at 42° C. Autoradiographs were made by exposing blots to x-ray film (Kodak) at -70° C. with intensifying screens. Blots were exposed to phosphor-imager screens (Molecular Dynamics) and densitometry was performed with a Macintosh computer using MD Image Quant Version 3.35.
To evaluate the effect of oxidation of TRX-SH2 on MnSOD induction, A549 cells were incubated with diamide (2 mM; 30 min) or CDNB (100 μM; 45 min). After incubation, cells were washed and fresh medium added. The cells next were incubated with oxidized thioredoxin (28 μM; 6 h) and then processed for Northern analysis as described in Example 2.
A549 cells were incubated with actinomycin D ([…]), a transcriptional inhibitor, or cyclohexamide (10 μg/ml), a translation inhibitor, for 1 hour followed by addition of thioredoxin (28 μM) and further incubation for a period of 16 hours. mRNA was quantified as previously described.

C[C@@H]1C[C@@H]([C@H](O)CC2CC(=O)NC(=O)C2)C(=O)[C@@H](C)C1 [Cycloheximide, cycloheximide]
effect on thioredoxin-mediated increase in MnSOD mRNA (cyclohexamide 10 μg/ml, 1 hour, then thioredoxin 28 μM, 16 hours): potentiated the thioredoxin-mediated increase in MnSOD mRNA

O=[N+]([O-])c1ccc(Cl)c([N+](=O)[O-])c1 [CDNB]
effect on increased expression of MnSOD mRNA by thioredoxin (CDNB 100 μM, 45 min, washed, then oxidized thioredoxin 28 μM, 6 h): prevented increased expression of MnSOD mRNA by thioredoxin

CN(C)C(=O)/N=N/C(=O)N(C)C [diamide]
effect on elevation of MnSOD mRNA by thioredoxin (diamide 2 mM, 30 min, washed, then oxidized thioredoxin 28 μM, 6 h): prevented elevation of MnSOD mRNA by thioredoxin

Cc1c2oc3c(C)ccc(C(=O)N[C@@H]4C(=O)N[C@H](C(C)C)C(=O)N5CCC[C@H]5C(=O)N(C)CC(=O)N(C)[C@@H](C(C)C)C(=O)O[C@@H]4C)c3nc-2c(C(=O)N[C@@H]2C(=O)N[C@H](C(C)C)C(=O)N3CCC[C@H]3C(=O)N(C)CC(=O)N(C)[C@@H](C(C)C)C(=O)O[C@@H]2C)c(N)c1=O [actinomycin D] (I: T[dV]P[Sar][NMeV] / II: T[dV]P[Sar][NMeV]; ester I:1-I:C, II:1-II:C; linker I:N-II:N via Actinocin(9to1))
effect on production of MnSOD mRNA (actinomycin D, 1 hour, then thioredoxin 28 μM, 16 hours): inhibited
